The test system of experiment [1] is B16. Nature of the experiment: Effective dose against B16 melanoma cells in cytotoxicity assay. The experiment is classed as functional. Conditions: Mus musculus, read-out: ED50 (the source's name).
Experiment [2] deals with B16. Nature of the experiment: Effective dose against B16 melanoma cells in microtubule assembly assay. The conditions noted are these: Mus musculus, read-out: ED50 (the source's name). Format: functional.

In the case of `CC(=O)O[C@H]1C(=O)[C@@]2(C)[C@H]([C@H](OC(=O)c3ccccc3)[C@]3(O)C[C@H](OC(=O)[C@H](O)[C@@H](NC(=O)c4ccccc4)c4ccccc4)C(C)=C1C3(C)C)[C@]1(OC(C)=O)CO[C@@H]1C[C@@H]2O` [PACLITAXEL], the EC50 turned out to be 27 nM in the experiment on B16 [1] and 1000 nM in the experiment with B16 [2].

The record behind these values is ChEMBL document CHEMBL1150543, “Semisynthesis and biological evaluation of brevifoliol 13-[N-benzoyl-(-2R,3S)-3-phenylisoserinate]” (1993).
